Data as given in patent publication US10988451B2, “MCL-1 inhibitors” (Gilead Sciences, Inc., priority 2018, dated 2021).
Like-named read-outs stand apart in the source and are kept apart here.

Key:
[1] = target: MCL-1/Bim (Homo sapiens (Human), UniProt Q07820); assay: MCL-1/Bim Binding AlphaLISA Assay; settings: 6xHis-Mcl-1 (171-327) and biotinylated Bim peptide (51-76)
Procedure: MCL-1/Bim Binding AlphaLISA Assay.
Inhibition of the MCL-1 and Bim interaction was measured in the following AlphaLISA assay.
Recombinant human MCL-1 protein (C-terminal 6×His Tagged Mcl-1 containing residues 171-327) was generated at Gilead Sciences, Inc. (Foster City, Calif.). A biotinylated peptide derived from human Bim (residues 51-76) was purchased from CPC Scientific (Sunnyvale, Calif.). (CPC 834113). AlphaLISA anti-6His-acceptor beads (AL128R), AlphaScreen Streptavidin donor beads (6760002B), and Proxiplate-384 Plus (6008289) were purchased from PerkinElmer.
The AlphaLISA assay was performed in a 384-well Proxiplate in a total volume of 40 μL. The reaction mixture contained 0.0625 nM 6× His-Mcl-1 (171-327), 0.0625 nM biotinylated-Bim peptide, 10 μg/mL AlphaLISA anti-6×His-AlphaLISA acceptor beads, 40 μg/mL AlphaScreen streptavidin donor beads, and serially diluted test compounds in the binding buffer (20 mM Hepes, pH 7.5 (Teknova H1035); 150 mM NaCl (Promega V4221); 0.002% Brij 35 (Thermo Scientific 20150); 1 mM Dithiothreitol (DTT) Solution (Affymetrix 70726); 0.01% BSA (BioLabs B9000S)). 1,000× test compounds were pre-spotted onto 384-well Proxiplate (Labcyte Echo) by Echo 555 Liquid Handler (Labcyte Inc., San Jose, Calif.) followed by incubation of 5 μl Mcl-1(171-327) for 1 hour. Then 5 μL Bim (51-76) was added and incubated for 2 hours. Five μL AlphaLISA anti-6His-AlphaLISA acceptor beads were then added for 1 hour followed by addition of 5 μL AlphaScreen streptavidin donor beads for 1 hour. The reaction plates were then read on an Envision multimode reader (PerkinElmer) using AlphaScreen settings. […] Percent inhibition was calculated as shown below: % Inhibition=100%*(Well−Neg)/(Pos−Neg) Neg: negative control, DMSO Pos: positive control, no Mcl-1 protein, no biotinylated-Bim peptide

[2] = system: SKBR3 cells; assay: SKBR3 Cell Viability Assay; format: cell-based; settings: CellTiter Glo, read-out: MCL-1 CV SKBR3 EC50
Procedure: SKBR3 Cell Viability Assay Materials
SKBR3 Cells (ATCC HTB-30) were obtained from ATCC (Manassas, Va.) and cultured in McCoy 5A's medium (ATCC 30-2007)+10% fetal bovine serum (SH30071.03, HyClone, Pittsburgh, Pa.) plus 1× Penicillin-Streptomycin L-glutamine (Corning 30-009-C1, Corning, N.Y.)).
The cell viability assay was conducted in a 384-well tissue culture plate (Grenier 781086, Monroe, N.C.) in a total volume of 70 μL. Test compounds were prepared in 1,000×, serially diluted, and pre-spotted into 384-well tissue culture plate by Echo 555 Liquid Handler (Labcyte Inc., San Jose, Calif.). Seventy μ1 of 6,000 SKBR3 cells were dispensed into each well of the plate and incubated at 37° C. with 5% CO2 for 72 hours. At the end of incubation, 2× CellTiter Glo (CTG) reagents (1 part buffer with 2 parts substrate) (Promega, Madison, Wis.) were prepared, and the plate and the reagent were equilibrated to room temperature for 30 minutes. CTG reagent was added to each plate by Biomek FX at 20 μL/well with 5 times pipetting and mixing to induce cell lysis. Luminescence was read by Envision multimode reader (PerkinElmer). […] Percent inhibition was calculated as followed: % Inhibition=100%*(Well−Neg)/(Pos−Neg) Neg, negative control, DMSO Pos, positive control, 10 μM Puromycin

Chain of MCL-1/Bim (Q07820 171-327): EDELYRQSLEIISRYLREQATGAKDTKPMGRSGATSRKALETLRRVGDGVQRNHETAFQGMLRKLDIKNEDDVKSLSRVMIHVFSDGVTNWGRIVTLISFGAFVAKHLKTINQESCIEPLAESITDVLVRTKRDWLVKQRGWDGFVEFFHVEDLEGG

IC50 [1] [nM] | EC50 ([2]; Homo sapiens, SK-BR-3, 72 h) [nM] | SMILES | EC50 ([2]; 72 hours) [nM]
1.4 | 1610 | CO[C@H]1/C=C/CCC[S@@](=O)(NC(=O)NCc2ccc(F)cc2)=NC(=O)c2ccc3c(c2)N(C[C@@H]2CC[C@H]21)C[C@@]1(CCCc2cc(Cl)ccc21)CO3 [Example 37] | –
0.041 | – | COc1nn(C)cc1C(=O)N[S@@]1(=O)=NC(=O)c2ccc3c(c2)N(C[C@@H]2CC[C@H]2[C@@H](O)/C=C/[C@H](O)[C@H](C)C1)C[C@@]1(CCCc2cc(Cl)ccc21)CO3 [Example 279] | –
0.5 | 2060 | CC[C@H]1CN2C[C@@]3(CCCc4cc(Cl)ccc43)COc3ccc(cc32)C(=O)N=[S@](=O)(NC(=O)Cc2cnccn2)CCC/C=C/[C@H](OC)[C@@H]1C [Example 20] | –
7.4 | 7730 | CO[C@H]1/C=C/CCCS(=O)(NC(=O)CCN(C)C)=NC(=O)c2ccc3c(c2)N(C[C@@H]2CC[C@H]21)C[C@@]1(CCCc2cc(Cl)ccc21)CO3 (stereo partly drawn) [Example 15] | –
0.234 | 64.8 | CO[C@H]1/C=C/C[C@H](C)C[S@@](=O)(NC(=O)c2ccc3c(c2)COCC3)=NC(=O)c2ccc3c(c2)N(C[C@@H]2CC[C@H]21)C[C@@]1(CCCc2cc(Cl)ccc21)CO3 [Example 157] | –
1.4 | 3320 | CO[C@H]1/C=C/C[C@H](C)[C@@H](C)[S@](=O)(NC(=O)CCc2ccnn2C)=NC(=O)c2ccc3c(c2)N(C[C@@H]2CC[C@H]21)C[C@@]1(CCCc2cc(Cl)ccc21)CO3 [Example 50] | –
4 | – | CCC(=O)N[S@]1(=O)=NC(=O)c2ccc3c(c2)N(C[C@@H]2CC[C@H]2[C@@H](OC)/C=C/CCCC1)C[C@@]1(CCCc2cc(Cl)ccc21)CO3 [Example 69] | –
1.8 | 1690 | CC[C@H]1CN2C[C@@]3(CCCc4cc(Cl)ccc43)COc3ccc(cc32)C(=O)N=[S@](=O)(NC(=O)CC(C)C)CCC/C=C/[C@H](OC)[C@@H]1C [Example 26] | –
4.2 | – | CCC(=O)N[S@@]1(=O)=NC(=O)c2ccc3c(c2)N(C[C@@H]2CC[C@H]2[C@@H](OC)CCCCC1)C[C@@]1(CCCc2ccccc21)CO3 [Example 16] | –
0.121 | – | CO[C@H]1/C=C/C[C@H](C)C[S@@](=O)(NC(=O)C2CC(OC(F)F)C2)=NC(=O)c2ccc3c(c2)N(C[C@@H]2CC[C@H]21)C[C@@]1(CCCc2cc(Cl)ccc21)CO3 (stereo partly drawn) [Example 431] | –
0.1 | – | CO[C@H]1/C=C/C[C@H](C)C[S@@](=O)(NC(=O)NCC2CC2)=NC(=O)c2ccc3c(c2)N(C[C@@H]2CC[C@H]21)C[C@@]1(CCCc2cc(Cl)ccc21)CO3 [Example 107] | –
0.106 | – | COc1nn(C)cc1C(=O)N[S@@]1(=O)=NC(=O)c2ccc3c(c2)N(C[C@@H]2CC[C@H]2[C@@H](OC)/C=C/[C@H](OC(=O)CCc2ccccc2)[C@H](C)C1)C[C@@]1(CCCc2cc(Cl)ccc21)CO3 [Example 377] | 34
0.044 | 80.1 | CO[C@H]1/C=C/C[C@H](C)C[S@@](=O)(CC(=O)N[C@@H]2CC[C@@H](O)C2)=NC(=O)c2ccc3c(c2)N(C[C@@H]2CC[C@H]21)C[C@@]1(CCCc2cc(Cl)ccc21)CO3 [Example 222] | –
0.6 | 2010 | CC[C@H]1CN2C[C@@]3(CCCc4cc(Cl)ccc43)COc3ccc(cc32)C(=O)N=[S@](=O)(NC(C)=O)CCC/C=C/[C@H](OC)[C@@H]1C [Example 25] | –
0.1 | 705 | CO[C@H]1/C=C/CCC[S@@](=O)(NC(=O)CCc2ccn(C)n2)=NC(=O)c2ccc3c(c2)N(C[C@@H]2CC[C@H]21)C[C@@]1(CCCc2cc(Cl)ccc21)CO3 [Example 51] | –
3.7 | 8450 | CO[C@H]1/C=C/CCCS(=O)(NC(=O)CCc2ccnn2C)=NC(=O)c2ccc3c(c2)N(C[C@@H]2CC[C@H]21)C[C@@]1(CCCc2cc(Cl)ccc21)CO3 (single isomer, unassigned) [Example 48] | –
1.1 | 1080 | CC[C@H]1CN2C[C@@]3(CCCc4cc(Cl)ccc43)COc3ccc(cc32)C(=O)N=[S@](=O)(NC(=O)NC(C)C)CCC/C=C/[C@H](OC)[C@@H]1C [Example 19] | –
0.038 | 19 | COc1nn(C)cc1C(=O)N[S@@]1(=O)=NC(=O)c2ccc3c(c2)N(C[C@@H]2CC[C@H]2[C@@H](O)/C=C/C[C@H](C)[C@H]1C)C[C@@]1(CCCc2cc(Cl)ccc21)CO3 [Example 359] | –
– | – | CO[C@H]1/C=C/CCC[S@@](=O)(NC(=O)Cc2ccnn2C)=NC(=O)c2ccc3c(c2)N(C[C@@H]2CC[C@H]21)C[C@@]1(CCCc2cc(Cl)ccc21)CO3 [Example 29] | 1840

SMILES | IC50 [1] [nM] | EC50 ([2]; Homo sapiens, SK-BR-3, 72 h) [nM] | EC50 ([2]; 72 hours) [nM]
CO[C@H]1/C=C/CCC[S@@](N)(=O)=NC(=O)c2ccc3c(c2)N(C[C@@H]2CC[C@H]21)C[C@@]1(CCCc2cc(Cl)ccc21)CO3 [Example 5] | 60.2 | – | –
CCC(=O)N[S@]1(=O)=NC(=O)c2ccc3c(c2)N(C[C@@H]2CC[C@H]2[C@@H](O)/C=C/CCC1)C[C@@]1(CCCc2cc(Cl)ccc21)CO3 [Example 63] | 1.4 | – | –
CCNC(=O)N[S@@]1(=O)=NC(=O)c2ccc3c(c2)N(C[C@@H]2CC[C@H]2[C@@H](OC)CCCCC1)C[C@@]1(CCCc2cc(Cl)ccc21)CO3 [Example 14] | 0.3 | – | –
CCOC(=O)NS1(=O)=NC(=O)c2ccc3c(c2)N(C[C@@H]2CC[C@H]2[C@@H](OC)/C=C/CCC1)C[C@@]1(CCCc2cc(Cl)ccc21)CO3 (single isomer, unassigned) [Example 10] | 3.6 | – | –
COC1Cc2cc(C(=O)N[S@@]3(=O)=NC(=O)c4ccc5c(c4)N(C[C@@H]4CC[C@H]4[C@@H](OC)/C=C/C[C@H](C)C3)C[C@@]3(CCCc4cc(Cl)ccc43)CO5)cn2C1 (stereo partly drawn) [Example 205] | 0.075 | 58.9 | –
CCC(=O)N[S@@]1(=O)=NC(=O)c2ccc3c(c2)N(C[C@@H]2CC[C@H]2[C@@H](O)/C=C/CCC1)C[C@@]1(CCCc2cc(Cl)ccc21)CO3 [Example 62] | 0.4 | – | –
CCC(=O)N[S@]1(=O)=NC(=O)c2ccc3c(c2)N(C[C@@H]2CC[C@H]2[C@@H](OC)/C=C/CCC1)C[C@@]1(CCCc2cc(Cl)ccc21)CO3 [Example 3] | 4.1 | – | –
CCNC(=O)N[S@@]1(=O)=NC(=O)c2ccc3c(c2)N(C[C@@H]2CC[C@H]2[C@@H](OC)CCCCC1)C[C@@]1(CCCc2cc(Cl)ccc21)CO3 [Example 13] | 1.8 | – | –
CO[C@H]1/C=C/C[C@H](C)[C@@H](C)[S@@](=O)(NC(=O)c2cnn(C3COC3)c2)=NC(=O)c2ccc3c(c2)N(C[C@@H]2CC[C@H]21)C[C@@]1(CCCc2cc(Cl)ccc21)CO3 [Example 152] | 0.057 | 55.7 | –
CCOC(=O)N[S@]1(=O)=NC(=O)c2ccc3c(c2)N(C[C@@H]2CC[C@H]2[C@@H](OC)/C=C/CCC1)C[C@@]1(CCCc2cc(Cl)ccc21)CO3 [Example 9] | 6.6 | – | –
CCC(=O)N[S@@]1(=O)=NC(=O)c2ccc3c(c2)N(C[C@@H]2CC[C@H]2[C@@H](OC)CCCCC1)C[C@@]1(CCCc2cc(Cl)ccc21)CO3 [Example 11] | 6.5 | – | –
CO[C@H]1/C=C/CCC[S@@](=O)(NC(=O)CCc2ccnn2C)=NC(=O)c2ccc3c(c2)N(C[C@@H]2CC[C@H]21)C[C@@]1(CCCc2cc(Cl)ccc21)CO3 [Example 22] | 0.1 | – | 259
CCC(=O)NS1(=O)=NC(=O)c2ccc3c(c2)N(C[C@@H]2CC[C@H]2[C@@H](OC)/C=C/CCC1)C[C@@]1(CCCc2cc(Cl)ccc21)CO3 (single isomer, unassigned) [Example 4] | 0.7 | – | –
